Experimental data taken from patent US20110217715A1, “GENE EXPRESSION IN DUCHENNE MUSCULAR DYSTROPHY” (CHILDREN'S HOSPITAL MEDICAL CENTER, priority 2008, published 2011).

Tested on: mRNA expression in peripheral blood of individuals with DMD
Assay: Whole-blood gene expression microarray: DMD administered deflazacort vs DMD administered prednisone
Type: in vivo, human
Description: Fifteen ml of blood was collected from each individual into 6 PAXgene® Vacutainer® tubes (PreAnalytiX, Germany) by antecubital fossa venipuncture. PAXgene® tubes contain a proprietary reagent that immediately stabilizes RNA, thus reducing RNA degradation and minimizing gene expression changes following phlebotomy. The tubes were then inverted 20 times, then remained undisturbed for 2 h at room temperature (about 19° C. to about 22° C.), and then stored at -70° C. until processed. Total RNA was isolated using the Paxgene® blood RNA kit (PreAnalytiX, Germany) according to the manufacturers instructions. The RNA isolated is from all cells in whole blood. Typical yields of total RNA isolated from about 7.5 ml of human whole blood were between 10 μg RNA and 40 μg RNA. RNA quality and purity was analyzed by spectrophotometry using the Nanodrop ND-1000, and RNA integrity was analyzed using the Agilent 2100 Bioanalyzer. […] Sample labeling, hybridization to chips, and image scanning were performed using standard Affymetrix protocols. For each whole blood sample from control individuals and individuals with DMD, total RNA was labeled using the One-Cycle Target Labeling protocol and hybridized to the arrays. […] Double-stranded cDNA synthesis, biotin-labeled cRNA synthesis, and cRNA fragmentation were performed according to the Affymetrix GeneChip Eukaryotic Expression Analysis protocol. The labeled, fragmented cRNA (15 μg) was hybridized at 45° C. overnight. After hybridization, the array was washed and stained. The arrays were scanned with an argon-ion laser at λ=570 nm, with a resolution of 3 μm/pixel (Affymetrix, Inc.). After scanning the array, the raw probe level values for each probe were saved in Affymetrix.cel files. […] Statistical analyses, including t-test analyses, unsupervised hierarchical clustering, and principal component analyses were conducted using Genespring 7.2 software ([…]® 7, Silicon Genetics, Redwood City Calif.). […] Corrections for multiple comparisons used a Benjamini-Hochberg False Discovery Rate (FDR) of 0.05, disclosed in Tang et al., J Cereb Blood Flow Metab 26 (2006) 1089, which is expressly incorporated by reference herein in its entirety. […] Sample processing and array hybridization, probe-level data analysis, and statistical analysis were identical to Example 1.

CC(=O)OCC(=O)[C@@]12N=C(C)O[C@@H]1C[C@H]1[C@@H]3CCC4=CC(=O)C=C[C@]4(C)[C@H]3[C@@H](O)C[C@@]12C [deflazacort]
p-value (t-test, deflazacort vs prednisone) (deflazacort vs. prednisone, NM_004862, Nucleic Acid No. 2094): 0.0123
p-value (t-test, deflazacort vs. prednisone) (deflazacort vs. prednisone, NM_005306, Nucleic Acid No. 2036): 0.00696
p-value (t-test, deflazacort vs. prednisone) (deflazacort vs. prednisone, NM_005345, Nucleic Acid No. 275): 0.0354
p-value (deflazacort vs. prednisone, NM_005461, Nucleic Acid No. 1310): 0.0317
p-value (deflazacort vs. prednisone, NM_005502, Nucleic Acid No. 1893): 0.00709
p-value (t-test, deflazacort vs prednisone) (deflazacort vs. prednisone, NM_005569, Nucleic Acid No. 2093): 0.0261
p-value (t-test, deflazacort vs prednisone) (deflazacort vs. prednisone, NM_005574, Nucleic Acid No. 2095): 0.0476
p-value (deflazacort vs. prednisone, NM_005720, Nucleic Acid No. 1912): 0.0485
p-value (deflazacort vs. prednisone, NM_005890, Nucleic Acid No. 2024): 0.0113
p-value (t-test, deflazacort vs. prednisone) (deflazacort vs. prednisone, NM_006018, Nucleic Acid No. 2035): 0.000507
p-value (t-test, deflazacort vs. prednisone) (deflazacort vs. prednisone, NM_006332, Nucleic Acid No. 2055): 0.0414
p-value (deflazacort vs. prednisone, NM_006854, Nucleic Acid No. 2078): 0.0129
p-value (t-test, deflazacort vs prednisone) (deflazacort vs. prednisone, NM_006863, Nucleic Acid No. 2092): 0.00957
p-value (t-test, deflazacort vs. prednisone) (deflazacort vs. prednisone, NM_014179, Nucleic Acid No. 2051): 0.0407
p-value (t-test, deflazacort vs. prednisone) (deflazacort vs. prednisone, NM_014339, Nucleic Acid No. 2058): 0.0463
p-value (t-test, deflazacort vs prednisone) (deflazacort vs. prednisone, NM_014656, Nucleic Acid No. 2079): 0.00329
p-value (deflazacort vs. prednisone, NM_018690, Nucleic Acid No. 1907): 0.00658
p-value (deflazacort vs. prednisone, NM_019043, Nucleic Acid No. 1040): 0.0288
p-value (t-test, deflazacort vs. prednisone) (deflazacort vs. prednisone, NM_020179, Nucleic Acid No. 2016): 0.0196
p-value (t-test, deflazacort vs. prednisone) (deflazacort vs. prednisone, NM_020386, Nucleic Acid No. 2046): 0.0129
p-value (deflazacort vs. prednisone, NM_152641, Nucleic Acid No. 1576): 0.0457
p-value (t-test, deflazacort vs. prednisone) (deflazacort vs. prednisone, R38084, Nucleic Acid No. 2026): 0.0133
p-value (deflazacort vs. prednisone, S72848, Nucleic Acid No. 1686): 0.0226
p-value (t-test, deflazacort vs prednisone) (deflazacort vs. prednisone, T85248, Nucleic Acid No. 1311): 0.0383
p-value (deflazacort vs. prednisone, U48734, Nucleic Acid No. 1898): 0.0349
p-value (t-test, deflazacort vs. prednisone) (deflazacort vs. prednisone, U65590, Nucleic Acid No. 2061): 0.00419
p-value (deflazacort vs. prednisone, U70064, Nucleic Acid No. 414): 0.0255
p-value (t-test, deflazacort vs. prednisone) (deflazacort vs. prednisone, U81501, Nucleic Acid No. 2021): 0.0425
p-value (t-test, deflazacort vs prednisone) (deflazacort vs. prednisone, U93240, Nucleic Acid No. 2086): 0.0114
p-value (deflazacort vs. prednisone, U97075, Nucleic Acid No. 1949): 0.0264
p-value (t-test, deflazacort vs. prednisone) (deflazacort vs. prednisone, W27419, Nucleic Acid No. 2052): 0.0306
p-value (t-test, deflazacort vs. prednisone) (deflazacort vs. prednisone, W93728, Nucleic Acid No. 1590): 0.0103
p-value (deflazacort vs. prednisone, W95007, Nucleic Acid No. 1896): 0.0111
p-value (t-test, deflazacort vs. prednisone) (deflazacort vs. prednisone, X51757, Nucleic Acid No. 2050): 0.0352
p-value (gene M-RIP, Genbank BF515158, Nucleic Acid No. 2128): 0.0466
p-value (gene MLKL, Genbank AA706818, Nucleic Acid No. 2125): 0.031
p-value (gene MLL3, Genbank AI057455, Nucleic Acid No. 2126): 0.0474
p-value (gene MLLT2, Genbank AA703523, Nucleic Acid No. 2127): 0.0149
p-value (gene MLSTD1, Genbank NM_018099, Nucleic Acid No. 1848): 0.0331
p-value (gene MS4A7, Genbank AF237916, Nucleic Acid No. 2129): 0.0291
p-value (gene MTF1, Genbank NM_005955, Nucleic Acid No. 2130): 5.84E−05
p-value (gene MX2, Genbank NM_002463, Nucleic Acid No. 2131): 0.0283
p-value (gene MYADM, Genbank BE908995, Nucleic Acid No. 2132): 0.0206
p-value (gene MYLIP, Genbank AW292746, Nucleic Acid No. 2133): 0.00321
p-value (gene MYO1F, Genbank BF740152, Nucleic Acid No. 2134): 0.0266
p-value (gene N4BP1, Genbank AB014515, Nucleic Acid No. 2135): 0.0291
p-value (gene NCF2, Genbank BC001606, Nucleic Acid No. 2136): 0.0348
p-value (gene NCOA1, Genbank BF576458, Nucleic Acid No. 2137): 0.00399
p-value (gene NCOA6, Genbank AF128458, Nucleic Acid No. 926): 0.0221
p-value (gene NDE1, Genbank BF973292, Nucleic Acid No. 2138): 0.024
p-value (gene NDE1, Genbank NM_017668, Nucleic Acid No. 2139): 0.0358
p-value (gene NFIC, Genbank AW134798, Nucleic Acid No. 2140): 0.0141
p-value (gene NKTR, Genbank AI880383, Nucleic Acid No. 2141): 0.0222
p-value (gene NOTCH2, Genbank AA291203, Nucleic Acid No. 2142): 0.00739
p-value (gene NOTCH2, Genbank AF308601, Nucleic Acid No. 1046): 0.0265
p-value (gene NOTCH2NL, Genbank AW516297, Nucleic Acid No. 2143): 0.0362
p-value (gene NSF, Genbank AK025172, Nucleic Acid No. 2144): 0.0411
p-value (gene OLIG1, Genbank AL355743, Nucleic Acid No. 1399): 0.00583
p-value (gene OSTF1, Genbank NM_012383, Nucleic Acid No. 2145): 0.0203
p-value (gene PACSIN2, Genbank NM_007229, Nucleic Acid No. 2146): 0.0409
p-value (gene PAPD4, Genbank AW104325, Nucleic Acid No. 2147): 0.00878
p-value (gene PARP9, Genbank AI738416, Nucleic Acid No. 2148): 0.0394
p-value (gene PARVG, Genbank AL355092, Nucleic Acid No. 2149): 0.0293
p-value (gene PB1, Genbank H79538, Nucleic Acid No. 2150): 0.0371
p-value (gene PBX2, Genbank BE397715, Nucleic Acid No. 2151): 0.0221
p-value (gene PCBP2, Genbank AW025150, Nucleic Acid No. 2152): 0.0394
p-value (gene PDLIM5, Genbank NM_006457, Nucleic Acid No. 2153): 0.0238
